Test results from ChEMBL document CHEMBL1275550, “In vitro activity of doripenem, a carbapenem for the treatment of challenging infections caused by gram-negative bacteria, against recent clinical isolates from the United States” (2008).
In brackets after ≈: the same amount, converted by molar mass.

Tests used:
Enterobacteriaceae [1] = experiment: Antimicrobial activity against Ceftazidime non-susceptible Enterobacteriaceae assessed as susceptible isolate by broth microdilution method; type: functional
Pseudomonas aeruginosa [2] = experiment: Antimicrobial activity against Pseudomonas aeruginosa isolated from patient by broth microdilution method
Klebsiella pneumoniae [3] = experiment: Antimicrobial activity against ESBL producing Klebsiella pneumoniae by broth microdilution method; type: functional
Pseudomonas aeruginosa [4] = experiment: Antimicrobial activity against Ceftazidime susceptible Pseudomonas aeruginosa assessed as intermediate isolate by broth microdilution method; type: functional
Pseudomonas aeruginosa [5] = experiment: Antimicrobial activity against Pseudomonas aeruginosa isolated from non-ICU patient by broth microdilution method
Enterobacteriaceae [6] = experiment: Antimicrobial activity against Ceftazidime non-susceptible Enterobacteriaceae assessed as resistant isolate by broth microdilution method; type: functional
Escherichia coli [7] = experiment: Antimicrobial activity against Non-ESBL Escherichia coli assessed as intermediate isolate by broth microdilution method; type: functional
Acinetobacter [8] = experiment: Antimicrobial activity against imipenem non-susceptible Acinetobacter assessed as resistant isolate by broth microdilution method; type: functional
Enterobacteriaceae [9] = experiment: Antimicrobial activity against Enterobacteriaceae assessed as susceptible isolate by broth microdilution method; type: functional
Serratia marcescens [10] = experiment: Antimicrobial activity against Ceftazidime susceptible Serratia marcescens assessed as intermediate isolate by broth microdilution method; type: functional
Klebsiella pneumoniae [11] = experiment: Antimicrobial activity against Non-ESBL Klebsiella pneumoniae by broth microdilution method; type: functional
Citrobacter [12] = experiment: Antimicrobial activity against Citrobacter with nonderepressed AmpC beta-lactamsae assessed as susceptible isolate by broth microdilution method; type: functional
Proteus mirabilis [13] = experiment: Antimicrobial activity against ESBL producing Proteus mirabilis assessed as intermediate isolate by broth microdilution method; type: functional
Enterobacter cloacae [14] = experiment: Antimicrobial activity against Enterobacter cloacae with nonderepressed AmpC beta-lactamsae assessed as susceptible isolate by broth microdilution method; type: functional
Enterobacter cloacae [15] = experiment: Antimicrobial activity against Enterobacter cloacae assessed as susceptible isolate by broth microdilution method; type: functional
Serratia marcescens [16] = experiment: Antimicrobial activity against Serratia marcescens assessed as susceptible isolate by broth microdilution method; type: functional
Citrobacter [17] = experiment: Antimicrobial activity against Citrobacter with nonderepressed AmpC beta-lactamsae by broth microdilution method; type: functional
Enterobacteriaceae [18] = experiment: Antimicrobial activity against ceftazidime-susceptible Enterobacteriaceae assessed as susceptible isolate by broth microdilution method; type: functional
Pseudomonas aeruginosa [19] = experiment: Antimicrobial activity against Pseudomonas aeruginosa isolated from ICU patient by broth microdilution method; type: functional
Enterobacteriaceae [20] = experiment: Antimicrobial activity against Ceftazidime non-susceptible Enterobacteriaceae by broth microdilution method; type: functional
Pseudomonas aeruginosa [21] = experiment: Antimicrobial activity against imipenem susceptible Pseudomonas aeruginosa assessed as intermediate isolate by broth microdilution method; type: functional
Acinetobacter [22] = experiment: Antimicrobial activity against Acinetobacter by broth microdilution method; type: functional
Acinetobacter [23] = experiment: Antimicrobial activity against imipenem susceptible Acinetobacter by broth microdilution method; type: functional
Citrobacter [24] = experiment: Antimicrobial activity against Citrobacter with nonderepressed AmpC beta-lactamsae assessed as intermediate isolate by broth microdilution method; type: functional
Pseudomonas aeruginosa [25] = experiment: Antimicrobial activity against imipenem susceptible Pseudomonas aeruginosa by broth microdilution method; type: functional
Citrobacter [26] = experiment: Antimicrobial activity against Citrobacter assessed as susceptible isolate by broth microdilution method; type: functional
Streptococcus pneumoniae [27] = experiment: Antimicrobial activity against penicillin-resistant Streptococcus pneumoniae by broth microdilution method; type: functional; details: Streptococcus pneumoniae
Pseudomonas aeruginosa [28] = experiment: Antimicrobial activity against Pseudomonas aeruginosa by broth microdilution method; type: functional
Pseudomonas aeruginosa [29] = experiment: Antimicrobial activity against imipenem susceptible Pseudomonas aeruginosa assessed as susceptible isolate by broth microdilution method; type: functional
Klebsiella pneumoniae [30] = experiment: Antimicrobial activity against Non-ESBL Klebsiella pneumoniae assessed as intermediate isolate by broth microdilution method; type: functional
Pseudomonas aeruginosa [31] = experiment: Antimicrobial activity against Pseudomonas aeruginosa assessed as susceptible isolate by broth microdilution method; type: functional
Enterobacter cloacae [32] = experiment: Antimicrobial activity against Enterobacter cloacae by broth microdilution method; type: functional
Acinetobacter [33] = experiment: Antimicrobial activity against imipenem susceptible Acinetobacter assessed as susceptible isolate by broth microdilution method; type: functional
Pseudomonas aeruginosa [34] = experiment: Antimicrobial activity against Pseudomonas aeruginosa isolated from non-ICU patient by broth microdilution method; type: functional
Klebsiella pneumoniae [35] = experiment: Antimicrobial activity against Klebsiella pneumoniae by broth microdilution method; type: functional
Enterobacter cloacae [36] = experiment: Antimicrobial activity against Enterobacter cloacae with derepressed AmpC beta-lactamsae assessed as intermediate isolate by broth microdilution method; type: functional
Serratia marcescens [37] = experiment: Antimicrobial activity against Ceftazidime non-susceptible Serratia marcescens assessed as susceptible isolate by broth microdilution method; type: functional
Acinetobacter [38] = experiment: Antimicrobial activity against imipenem susceptible Acinetobacter assessed as intermediate isolate by broth microdilution method; type: functional
Proteus mirabilis [39] = experiment: Antimicrobial activity against Proteus mirabilis by broth microdilution method; type: functional
Proteus mirabilis [40] = experiment: Antimicrobial activity against Non-ESBL Proteus mirabilis by broth microdilution method; type: functional
Pseudomonas aeruginosa [41] = experiment: Antimicrobial activity against Ceftazidime susceptible Pseudomonas aeruginosa assessed as susceptible isolate by broth microdilution method; type: functional
Citrobacter [42] = experiment: Antimicrobial activity against Citrobacter with derepressed AmpC beta-lactamsae assessed as susceptible isolate by broth microdilution method; type: functional
Staphylococcus aureus = experiment: Antimicrobial activity against methicillin-susceptible Staphylococcus aureus by broth microdilution method; type: functional; details: Staphylococcus aureus
Serratia marcescens [43] = experiment: Antimicrobial activity against Ceftazidime non-susceptible Serratia marcescens assessed as intermediate isolate by broth microdilution method; type: functional
Klebsiella pneumoniae [44] = experiment: Antimicrobial activity against Non-ESBL Klebsiella pneumoniae assessed as susceptible isolate by broth microdilution method; type: functional
Klebsiella pneumoniae [45] = experiment: Antimicrobial activity against Klebsiella pneumoniae assessed as susceptible isolate by broth microdilution method; type: functional
Enterobacter cloacae [46] = experiment: Antimicrobial activity against Enterobacter cloacae with nonderepressed AmpC beta-lactamsae by broth microdilution method; type: functional
Streptococcus pneumoniae [47] = experiment: Antimicrobial activity against penicillin-susceptible Streptococcus pneumoniae by broth microdilution method; type: functional; details: Streptococcus pneumoniae
Escherichia coli [48] = experiment: Antimicrobial activity against ESBL producing Escherichia coli assessed as susceptible isolate by broth microdilution method; type: functional
Serratia marcescens [49] = experiment: Antimicrobial activity against Ceftazidime susceptible Serratia marcescens assessed as susceptible isolate by broth microdilution method; type: functional
Enterobacteriaceae [50] = experiment: Antimicrobial activity against ceftazidime-susceptible Enterobacteriaceae assessed as intermediate isolate by broth microdilution method; type: functional
Proteus mirabilis [51] = experiment: Antimicrobial activity against Non-ESBL Proteus mirabilis assessed as intermediate isolate by broth microdilution method; type: functional
Enterobacteriaceae [52] = experiment: Antimicrobial activity against ceftazidime-susceptible Enterobacteriaceae by broth microdilution method; type: functional
Pseudomonas aeruginosa [53] = experiment: Antimicrobial activity against imipenem non-susceptible Pseudomonas aeruginosa assessed as susceptible isolate by broth microdilution method; type: functional

C[C@@H](O)[C@H]1C(=O)N2C(C(=O)O)=C(SCCNC=N)C[C@H]12 [IMIPENEM ANHYDROUS]
Activity (Enterobacteriaceae [1]): 97.3% | Activity (Pseudomonas aeruginosa [2]): 7.9% | MIC50 (Klebsiella pneumoniae [3]): 0.5 mg/L (≈ 1.67 µM) | MIC90 (Klebsiella pneumoniae [3]): 1 mg/L (≈ 3.34 µM) | Activity (Pseudomonas aeruginosa [4]): 7.6% | Activity (Pseudomonas aeruginosa [5]): 74.9% | Activity (Enterobacteriaceae [6]): 1% | Activity (Escherichia coli [7]): 0% | Activity (Acinetobacter [8]): 96.1% | Activity (Enterobacteriaceae [9]): 99.4% | Activity (Serratia marcescens [10]): 0.3% | MIC50 (Klebsiella pneumoniae [11]): 0.5 mg/L (≈ 1.67 µM) | MIC90 (Klebsiella pneumoniae [11]): 1 mg/L (≈ 3.34 µM) | Activity (Citrobacter [12]): 99.8% | Activity (Proteus mirabilis [13]): 0% | Activity (Enterobacter cloacae [14]): 99.5% | Activity (Enterobacter cloacae [15]): 99.6% | Activity (Serratia marcescens [16]): 98.9% | MIC50 (Citrobacter [17]): 0.5 mg/L (≈ 1.67 µM) | MIC90 (Citrobacter [17]): 2 mg/L (≈ 6.68 µM) | Activity (Enterobacteriaceae [18]): 99.6% | MIC50 (Pseudomonas aeruginosa [19]): 4 mg/L (≈ 13.4 µM) | MIC90 (Pseudomonas aeruginosa [19]): 32 mg/L (≈ 107 µM) | MIC50 (Enterobacteriaceae [20]): 1 mg/L (≈ 3.34 µM) | MIC90 (Enterobacteriaceae [20]): 2 mg/L (≈ 6.68 µM) | Activity (Pseudomonas aeruginosa [21]): 0% | MIC50 (Acinetobacter [22]): 1 mg/L (≈ 3.34 µM) | MIC90 (Acinetobacter [22]): > 32 mg/L | MIC50 (Acinetobacter [23]): 0.5 mg/L (≈ 1.67 µM) | MIC90 (Acinetobacter [23]): 4 mg/L (≈ 13.4 µM) | Activity (Citrobacter [24]): 0% | MIC50 (Pseudomonas aeruginosa [25]): 2 mg/L (≈ 6.68 µM) | MIC90 (Pseudomonas aeruginosa [25]): 4 mg/L (≈ 13.4 µM) | Activity (Citrobacter [26]): 99.8% | MIC50 (Streptococcus pneumoniae [27]; read-out: MIC50): 0.5 mg/L (≈ 1.67 µM) | MIC90 (Streptococcus pneumoniae [27]; read-out: MIC90): 1 mg/L (≈ 3.34 µM) | MIC50 (Pseudomonas aeruginosa [28]): 4 mg/L (≈ 13.4 µM) | MIC90 (Pseudomonas aeruginosa [28]): 32 mg/L (≈ 107 µM) | Activity (Pseudomonas aeruginosa [29]): 100% | Activity (Klebsiella pneumoniae [30]): 0.1% | Activity (Pseudomonas aeruginosa [31]): 76.3% | MIC50 (Enterobacter cloacae [32]): 1 mg/L (≈ 3.34 µM) | MIC90 (Enterobacter cloacae [32]): 2 mg/L (≈ 6.68 µM) | Activity (Acinetobacter [33]): 100% | MIC50 (Pseudomonas aeruginosa [34]): 4 mg/L (≈ 13.4 µM) | MIC90 (Pseudomonas aeruginosa [34]): 32 mg/L (≈ 107 µM) | MIC50 (Klebsiella pneumoniae [35]): 0.5 mg/L (≈ 1.67 µM) | MIC90 (Klebsiella pneumoniae [35]): 1 mg/L (≈ 3.34 µM) | Activity (Enterobacter cloacae [36]): 0% | Activity (Serratia marcescens [37]): 100% | Activity (Acinetobacter [38]): 0% | MIC50 (Proteus mirabilis [39]): 2 mg/L (≈ 6.68 µM) | MIC90 (Proteus mirabilis [39]): 4 mg/L (≈ 13.4 µM) | MIC50 (Proteus mirabilis [40]): 2 mg/L (≈ 6.68 µM) | MIC90 (Proteus mirabilis [40]): 4 mg/L (≈ 13.4 µM) | Activity (Pseudomonas aeruginosa [41]): 79.3% | Activity (Citrobacter [42]): 100% | MIC50 (Staphylococcus aureus; read-out: MIC50): 0.03 mg/L (≈ 0.1 µM) | MIC90 (Staphylococcus aureus; read-out: MIC90): 0.03 mg/L (≈ 0.1 µM) | Activity (Serratia marcescens [43]): 0% | Activity (Klebsiella pneumoniae [44]): 99.8% | Activity (Klebsiella pneumoniae [45]): 99.7% | MIC50 (Enterobacter cloacae [46]): 1 mg/L (≈ 3.34 µM) | MIC90 (Enterobacter cloacae [46]): 2 mg/L (≈ 6.68 µM) | MIC50 (Streptococcus pneumoniae [47]): ≤ 0.015 mg/L | MIC90 (Streptococcus pneumoniae [47]; read-out: MIC90): ≤ 0.015 mg/L | Activity (Escherichia coli [48]): 100% | Activity (Serratia marcescens [49]): 98.9% | Activity (Enterobacteriaceae [50]): 0.3% | Activity (Proteus mirabilis [51]): 2.5% | MIC50 (Enterobacteriaceae [52]): 0.5 mg/L (≈ 1.67 µM) | MIC90 (Enterobacteriaceae [52]): 2 mg/L (≈ 6.68 µM) | Activity (Pseudomonas aeruginosa [53]): 0%
